How the values were obtained:
male C57/BL6 mice = assay: Chronic EAE (MOG35-55), clinical symptoms; assay type: in vivo; conditions: chronic model, FIG. 1C
Procedure: C57BL/6 mice were immunized with 100 μg of MOG35-55 as described above. Mice also received two doses of pertussis toxin (150 ng/mouse) on 0 and 2 dpi.
GTB was mixed in 0.5% methylcellulose (MC) and EAE mice were gavaged 100 μL GTB-mixed MC once daily using gavage needle. Therefore, control EAE mice received only MC as vehicle.
While female SJL/J mice are used to induce RR-EAE, chronic form of EAE is modeled in male C57/BL6 mice upon immunization with MOG35-55. Therefore, the inventor examined the efficacy of GTB in suppressing the disease process of chronic EAE.

spinal cord of EAE mice = assay: Luxol fast blue staining for myelin, spinal cord of EAE mice; assay type: in vivo; conditions: FIG. 5A-B
Procedure: Sections were stained with Luxol fast blue for myelin as described earlier. Slides were assessed in a blinded fashion for demyelination by three examiners using the following scale: 0, normal white matter; 1, rare foci; 2, a few areas of demyelination; and 3, large areas of demyelination. At least six serial sections of each spinal cord from each of five mice per group were scored and statistically analyzed by ANOVA.
Demyelination is the most important pathological feature in MS, which is also modeled in EAE animals. Therefore, the inventor examined whether GTB protected EAE mice from demyelination. The inventor stained spinal cord sections by luxol fast blue (LFB) for myelin and observed widespread demyelination zones in the white matter (FIG. 5A-B). […] In contrast, vehicle was unable to restore myelin level in spinal cord of EAE mice (FIG. 5A-B). To confirm this finding, the inventor monitored the expression of […] myelin genes, myelin basic protein (MBP) and proteolipid protein (PLP), and observed a marked loss of mRNA expression of these genes in the spinal cord of untreated EAE mice compared to control mice (FIG. 5C-E).

[1] = tested on: proteolipid protein (PLP); assay: Myelin gene mRNA expression in spinal cord of EAE mice: PLP; assay type: in vivo; conditions: FIG. 5C-E
Procedure: Total RNA was isolated from splenic T cells and spinal cord by using the RNeasy mini kit (Qiagen, Valencia, Calif.) and from spleen and cerebellum by using the Ultraspec-II RNA reagent (Biotecx laboratories, Inc, Houston, Tex.) following manufacturer's protocol. To remove any contaminating genomic DNA, total RNA was digested with DNase. Semi-quantitative RT-PCR was carried out using a RT-PCR kit from Clonetech (Mountain View, Calif.). Briefly, 1 μg of total RNA was reverse transcribed using oligo(dT)12-18 as primer and MMLV reverse transcriptase (Clontech) in a 20 μL reaction mixture. […]
The relative expression of each gene with respect to GAPDH was measured after scanning the bands with a Fluor Chem 8800 Imaging System (Alpha Innotech, San Leandro, Calif.).
Real-time PCR analysis was performed using the ABI-Prism7700 sequence detection system (Applied Biosystems, Foster City, Calif.). […] Data were processed by the ABI Sequence Detection System 1.6 software and analyzed by ANOVA.
Demyelination is the most important pathological feature in MS, which is also modeled in EAE animals. […] To confirm this finding, the inventor monitored the expression of […] myelin genes, myelin basic protein (MBP) and proteolipid protein (PLP), and observed a marked loss of mRNA expression of these genes in the spinal cord of untreated EAE mice compared to control mice (FIG. 5C-E).

[2] = tested on: Foxp3+CD4+ population of T cells; assay: Flow cytometry of Tregs in splenocytes of EAE mice; assay type: in vivo; conditions: FIG. 7A-D
Procedure: Two-color flow cytometry was performed as described previously. Briefly, 1×10^6 lymph node cells (LNC) or splenocytes suspended in flow staining buffer were incubated at 4° C. with appropriately diluted FITC-labeled Ab to CD4 for 30 min, washed, and re-suspended in fixation and permeabilization solution. Following incubation in dark for 30 min, cells were washed, blocked with test Fc block (anti-mouse CD16/32) in permeabilization buffer, and subsequently incubated with appropriately diluted PE-labeled Abs to Foxp3 at 4° C. in the dark. After incubation, the cell suspension was centrifuged, washed thrice, and re-suspended in flow staining buffer. The cells then were analyzed through FACS (BD Biosciences, San Jose, Calif.). Cells were gated based on morphological characteristics. Apoptotic and necrotic cells were not accepted for FACS analysis.
Since TGF-β is involved in the differentiation of non-Tregs into Tregs, the inventor monitored the status of Tregs in EAE mice. A major population of Tregs is characterized by a transcription factor FoxP3. During autoimmune insults, Tregs become both numerically and functionally defective. Therefore, as expected, the inventor observed significant reduction in Foxp3+CD4+ population of T cells in EAE splenocytes as evident from FACS dot plot (FIG. 7A-B). […]

DJ-1 = assay: MPTP mouse model of PD, Western blot of DJ-1 in the nigra; assay type: in vivo, mice; conditions: oral GTB in MPTP-intoxicated mice, dose-dependent; FIG. 9A-B
Procedure: Six- to eight-week old C57BL/6 mice were purchased from Harlan (Indianapolis, Ind.). For acute MPTP intoxication, mice received four intraperitoneal (i.p.) injections of MPTP-HCl (18 mg/kg of free base; Sigma Chemical Co., St. Louis, Mo.) in saline at 2-h intervals. Control animals received only saline.
GTB was mixed in 0.5% methylcellulose (MC) and from 3 h after the last injection of MPTP, mice were gavaged 100 μL GTB-mixed MC once daily using gavage needle. Therefore, control MPTP mice received only MC as vehicle.
Immunoblot analysis for DJ-1 and TH was carried out. Briefly, cell homogenates were electrophoresed, proteins were transferred onto a nitrocellulose membrane, and bands were visualized with an Odyssey infrared scanner after immunolabeling with respective primary antibodies followed by infra-red fluorophore-tagged secondary antibody (Invitrogen).
Upregulation and/or maintenance of PD-related beneficial protein such as DJ-1 in the nigra during neurodegenerative insults may have therapeutic efficacy in PD.

O=C(OCC(COC(=O)c1ccccc1)OC(=O)c1ccccc1)c1ccccc1 [GTB, glyceryl tribenzoate]
clinical symptoms of EAE (male C57/BL6 mice): strongly inhibited the clinical symptoms | myelin level in the spinal cord (LFB) (spinal cord of EAE mice): remarkably restored myelin level | PLP mRNA expression in the spinal cord [1]: significant restoration of myelin gene mRNA expression | Foxp3+CD4+ population in splenocytes [2]: led to the increase in Foxp3+CD4+ population | level of DJ-1 in the nigra (DJ-1): protected DJ-1 in the nigra

Reference: US9968582B2, “Use of a benzoate containing composition in urea cycle disorders and neurodegenerative disorders” (Rush University Medical Center, priority 2014, dated 2018)
